Source: US9409866B2, “Pyridine-2-amides useful as CB2 agonists” (Hoffmann-La Roche Inc., priority 2012, dated 2016)
pEC50: −log10 of the molar value. Like-named read-outs stand apart in the source and are kept apart here.

Columns and labels:
human CB1 receptors = human CB1 receptors (Homo sapiens (Human), UniProt P21554); assay: functional cAMP assay, CHO cells expressing human CB1; format: cell-based; conditions: functional cAMP assay, CHO cells expressing human CB1; for pEC50: read-out: Human CB1 EC50
human CB1 receptors, sequence (P21554 whole entry): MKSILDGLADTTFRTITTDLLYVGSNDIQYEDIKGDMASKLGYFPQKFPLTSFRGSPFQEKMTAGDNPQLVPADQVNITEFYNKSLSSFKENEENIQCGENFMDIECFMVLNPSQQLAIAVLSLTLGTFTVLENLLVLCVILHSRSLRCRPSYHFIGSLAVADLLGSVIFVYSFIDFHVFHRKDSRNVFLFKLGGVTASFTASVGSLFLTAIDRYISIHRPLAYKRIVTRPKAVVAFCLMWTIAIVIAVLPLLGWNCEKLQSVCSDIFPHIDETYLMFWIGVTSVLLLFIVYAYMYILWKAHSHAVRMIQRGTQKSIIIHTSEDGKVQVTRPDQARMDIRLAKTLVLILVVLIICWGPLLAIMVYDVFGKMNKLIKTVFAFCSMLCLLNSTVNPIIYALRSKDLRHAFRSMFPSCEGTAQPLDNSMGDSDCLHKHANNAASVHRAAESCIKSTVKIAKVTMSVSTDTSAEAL
Summary of the method: (§1)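 CHO-hCB1/hCB2 cells, KRB + 1 mM IBMX preincubation 30 min 30 °C; cpd 30 min 30 °C; lysis + TR-FRET cAMP detection, 2 h RT; cAMP from std curve; EC50.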

human CB2 receptors = human CB2 receptors (Homo sapiens (Human), UniProt P34972); assay: functional cAMP assay, CHO cells expressing human CB2; format: cell-based; conditions: for pEC50: read-out: Human CB2 EC50
human CB2 receptors, sequence (P34972 whole entry): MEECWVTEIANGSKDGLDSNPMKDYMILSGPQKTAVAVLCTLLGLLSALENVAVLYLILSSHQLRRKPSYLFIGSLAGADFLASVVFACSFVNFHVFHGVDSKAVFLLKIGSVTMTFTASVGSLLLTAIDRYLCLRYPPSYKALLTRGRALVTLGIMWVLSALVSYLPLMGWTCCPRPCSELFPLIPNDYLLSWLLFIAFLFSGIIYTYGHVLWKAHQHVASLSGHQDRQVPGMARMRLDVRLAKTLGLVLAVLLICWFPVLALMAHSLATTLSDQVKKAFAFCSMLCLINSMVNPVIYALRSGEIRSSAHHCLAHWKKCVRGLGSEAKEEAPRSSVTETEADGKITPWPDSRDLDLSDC
Summary of the method: as §1

Compound	pEC50 (human CB1 receptors)	pEC50 (human CB2 receptors)	EC50 (human CB1 receptors; Human CB1 EC50 (uM))	EC50 (human CB2 receptors; Human CB2 EC50 (uM))
C[C@@H](Oc1cc(C(=O)NC2(CC(N)=O)COC2)ncc1C1CC1)C(F)(F)F [Example 63, 5-Cyclopropyl-4-((R)-2,2,2-trifluoro-1-methyl-ethoxy)-pyridine-2-carboxylic acid (3-carbamoylmethyl-oxetan-3-yl)-amide]	< 5.00	6.55	–	–
C[C@H](Oc1cc(C(=O)NC2(CC(N)=O)COC2)ncc1C1CC1)C(F)(F)F [Example 64, 5-Cyclopropyl-4-((S)-2,2,2-trifluoro-1-methyl-ethoxy)-pyridine-2-carboxylic acid (3-carbamoylmethyl-oxetan-3-yl)-amide]	< 5.00	6.29	–	–
CC(C)(C)NC(=O)c1cc(OCC(F)(F)F)c(C2CC2)cn1 [Example 70, 5-Cyclopropyl-4-(2,2,2-trifluoro-ethoxy)-pyridine-2-carboxylic acid tert-butylamide]	< 5.00	7.98	–	–
O=C(c1cc(OCC(F)(F)F)c(C2CC2)cn1)N1CCCC12COC2 [Example 71, [5-Cyclopropyl-4-(2,2,2-trifluoro-ethoxy)-pyridin-2-yl]-(2-oxa-5-aza-spiro[3.4]oct-5-yl)-methanone]	< 5.00	6.23	–	–
O=C(c1cc(OCC(F)(F)F)c(C2CC2)cn1)N1CC(F)(F)C1 [Example 76, [5-Cyclopropyl-4-(2,2,2-trifluoro-ethoxy)-pyridin-2-yl]-(3,3-difluoro-azetidin-1-yl)-methanone]	< 5.00	6.78	–	–
CCC(C)(NC(=O)c1cc(OCC(F)(F)F)c(C2CC2)cn1)C(N)=O (centres unmarked) [Example 77, 5-Cyclopropyl-4-(2,2,2-trifluoro-ethoxy)-pyridine-2-carboxylic acid (1-carbamoyl-1-methyl-propyl)-amide]	< 5.00	6.86	–	–
Cc1nc(C(C)(NC(=O)c2cc(OCC(F)(F)F)c(N3CC(F)(F)C3)cn2)C2CC2)no1 (centres unmarked) [Example 78, 5-(3,3-Difluoro-azetidin-1-yl)-4-(2,2,2-trifluoro-ethoxy)-pyridine-2-carboxylic acid [1-cyclopropyl-1-(5-methyl-[1,2,4]oxadiazol-3-yl)-ethyl]-amide]	< 5.00	8.21	–	–
Cc1nc(C(C)(NC(=O)c2cc(OCC(F)(F)F)c(N3CCC(F)(F)C3)cn2)C2CC2)no1 (centres unmarked) [Example 79, 5-(3,3-Difluoro-pyrrolidin-1-yl)-4-(2,2,2-trifluoro-ethoxy)-pyridine-2-carboxylic acid [1-cyclopropyl-1-(5-methyl-[1,2,4]oxadiazol-3-yl)-ethyl]-amide]	6.72	8.19	–	–
Cc1nc(C(C)(CS(C)(=O)=O)NC(=O)c2cc(OCC(F)(F)F)c(Cl)cn2)no1 (centres unmarked) [Example 80, 5-Chloro-4-(2,2,2-trifluoro-ethoxy)-pyridine-2-carboxylic acid [2-methanesulfonyl-1-methyl-1-(5-methyl-[1,2,4]oxadiazol-3-yl)-ethyl]-amide]	< 5.00	6.01	–	–
Cc1nc(C(C)(CS(C)(=O)=O)NC(=O)c2cc(O[C@@H](C)C(F)(F)F)c(C3CC3)cn2)no1 (stereo partly drawn) [Example 81, 5-Cyclopropyl-4-((S)-2,2,2-trifluoro-1-methyl-ethoxy)-pyridine-2-carboxylic acid [2-methanesulfonyl-1-methyl-1-(5-methyl-[1,2,4]oxadiazol-3-yl)-ethyl]-amide]	–	–	0.19 µM	0.0053 µM
CC(C)CC(C)(NC(=O)c1cc(OCC(F)(F)F)c(C2CC2)cn1)C(N)=O (centres unmarked) [Example 82, 5-Cyclopropyl-4-(2,2,2-trifluoro-ethoxy)-pyridine-2-carboxylic acid (1-carbamoyl-1,3-dimethyl-butyl)-amide]	< 5.00	7.09	–	–
Cc1nc(C(C)(CC(C)(C)C)NC(=O)c2cc(OCC(F)(F)F)c(Cl)cn2)no1 (centres unmarked) [Example 83, 5-Chloro-4-(2,2,2-trifluoro-ethoxy)-pyridine-2-carboxylic acid [1,3,3-trimethyl-1-(5-methyl-[1,2,4]oxadiazol-3-yl)-butyl]-amide]	< 5.00	7.60	–	–
Cc1nc(C(C)(CS(C)(=O)=O)NC(=O)c2cc(OCC(F)(F)F)c(C3CC3)cn2)no1 (centres unmarked) [Example 84, 5-Cyclopropyl-4-(2,2,2-trifluoro-ethoxy)-pyridine-2-carboxylic acid [2-methanesulfonyl-1-methyl-1-(5-methyl-[1,2,4]oxadiazol-3-yl)-ethyl]-amide]	< 5.00	7.31	–	–
CN(C)C(=O)CC1(NC(=O)c2cc(OCC(F)(F)F)c(Cl)cn2)COC1 [Example 85, 5-Chloro-4-(2,2,2-trifluoro-ethoxy)-pyridine-2-carboxylic acid (3-dimethylcarbamoylmethyl-oxetan-3-yl)-amide]	< 5.00	6.44	–	–
CN(C(=O)c1cc(-c2cccc(Cl)c2)ccn1)C(C)(C)C [Example 86, 4-(3-Chloro-phenyl)-pyridine-2-carboxylic acid tert-butyl-methyl-amide]	< 5.00	6.84	–	–
Cc1nc(C(C)(CC2CC2)NC(=O)c2cc(OCC(F)(F)F)c(Cl)cn2)no1 (centres unmarked) [Example 89, 5-Chloro-4-(2,2,2-trifluoro-ethoxy)-pyridine-2-carboxylic acid [2-cyclopropyl-1-methyl-1-(5-methyl-[1,2,4]oxadiazol-3-yl)-ethyl]-amide]	< 5.00	7.32	–	–
Cc1nc(C(C)(CC2CC2)NC(=O)c2cc(OCC(F)(F)F)c(N3CC(F)(F)C3)cn2)no1 (centres unmarked) [Example 90, 5-(3,3-Difluoro-azetidin-1-yl)-4-(2,2,2-trifluoro-ethoxy)-pyridine-2-carboxylic acid [2-cyclopropyl-1-methyl-1-(5-methyl-[1,2,4]oxadiazol-3-yl)-ethyl]-amide]	< 5.00	7.75	–	–
Cc1nc(C(C)(CS(C)(=O)=O)NC(=O)c2cc(OCC(F)(F)F)c(N3CC(F)(F)C3)cn2)no1 (centres unmarked) [Example 95, 5-(3,3-Difluoro-azetidin-1-yl)-4-(2,2,2-trifluoro-ethoxy)-pyridine-2-carboxylic acid [2-methanesulfonyl-1-methyl-1-(5-methyl-[1,2,4]oxadiazol-3-yl)-ethyl]-amide]	< 5.00	7.26	–	–
Cc1nc(C(C)(NC(=O)c2cc(O[C@@H](C)C(F)(F)F)c(N3CC(F)(F)C3)cn2)C2CC2)no1 (stereo partly drawn) [Example 96, 5-(3,3-Difluoro-azetidin-1-yl)-4-((S)-2,2,2-trifluoro-1-methyl-ethoxy)-pyridine-2-carboxylic acid [1-cyclopropyl-1-(5-methyl-[1,2,4]oxadiazol-3-yl)-ethyl]-amide]	6.96	8.85	–	–
Cc1nc(C(C)(CC(C)(C)C)NC(=O)c2cc(OCC(F)(F)F)c(C3CC3)cn2)no1 (centres unmarked) [Example 97, 5-Cyclopropyl-4-(2,2,2-trifluoro-ethoxy)-pyridine-2-carboxylic acid [1,3,3-trimethyl-1-(5-methyl-[1,2,4]oxadiazol-3-yl)-butyl]-amide]	< 5.00	8.23	–	–
Cc1nc(C(C)(CC2CC2)NC(=O)c2cc(O[C@@H](C)C(F)(F)F)c(C3CC3)cn2)no1 (stereo partly drawn) [Example 100, 5-Cyclopropyl-4-((S)-2,2,2-trifluoro-1-methyl-ethoxy)-pyridine-2-carboxylic acid [2-cyclopropyl-1-methyl-1-(5-methyl-[1,2,4]oxadiazol-3-yl)-ethyl]-amide]	< 5.00	9.22	–	–
Cc1nc(C(C)(CC2CC2)NC(=O)c2cc(O[C@@H](C)C(F)(F)F)c(C3CC3)cn2)no1 (stereo partly drawn) [Example 101, 5-Cyclopropyl-4-((S)-2,2,2-trifluoro-1-methyl-ethoxy)-pyridine-2-carboxylic acid [2-cyclopropyl-1-methyl-1-(5-methyl-[1,2,4]oxadiazol-3-yl)-ethyl]-amide]	6.68	9.15	–	–
Cc1nc(C(C)(CS(C)(=O)=O)NC(=O)c2cc(O[C@@H](C)C(F)(F)F)c(N3CC(F)(F)C3)cn2)no1 (stereo partly drawn) [Example 102, 5-(3,3-Difluoro-azetidin-1-yl)-4-((S)-2,2,2-trifluoro-1-methyl-ethoxy)-pyridine-2-carboxylic acid [2-methanesulfonyl-1-methyl-1-(5-methyl-[1,2,4]oxadiazol-3-yl)-ethyl]-amide]	< 5.00	6.94	–	–
Cc1nc(C(C)(CS(C)(=O)=O)NC(=O)c2cc(O[C@@H](C)C(F)(F)F)c(C3CC3)cn2)no1 (stereo partly drawn) [Example 103, 5-Cyclopropyl-4-((S)-2,2,2-trifluoro-1-methyl-ethoxy)-pyridine-2-carboxylic acid [2-methanesulfonyl-1-methyl-1-(5-methyl-[1,2,4]oxadiazol-3-yl)-ethyl]-amide]	6.32	8.47	–	–
CCN(C(=O)c1cc(OCC2CC2)c(C2CC2)cn1)C(C)(C)C [Example 106, 5-Cyclopropyl-4-cyclopropylmethoxy-pyridine-2-carboxylic acid tert-butyl-ethyl-amide]	< 5.00	8.02	–	–
CCN(C(=O)c1cc(OCC(F)(F)F)c(C2CC2)cn1)C(C)(C)C [Example 107, 5-Cyclopropyl-4-(2,2,2-trifluoro-ethoxy)-pyridine-2-carboxylic acid tert-butyl-ethyl-amide]	< 5.00	7.09	–	–
Cc1nc(C(C)(CC2CC2)NC(=O)c2cc(OCC(F)(F)F)c(C3CCC3)cn2)no1 (centres unmarked) [Example 108, 5-Cyclobutyl-4-(2,2,2-trifluoro-ethoxy)-pyridine-2-carboxylic acid [2-cyclopropyl-1-methyl-1-(5-methyl-[1,2,4]oxadiazol-3-yl)-ethyl]-amide]	6.10	8.57	–	–
Cc1nc(C(C)(CS(C)(=O)=O)NC(=O)c2cc(OCC(F)(F)F)c(C3CCC3)cn2)no1 (centres unmarked) [Example 109, 5-Cyclobutyl-4-(2,2,2-trifluoro-ethoxy)-pyridine-2-carboxylic acid [2-methanesulfonyl-1-methyl-1-(5-methyl-[1,2,4]oxadiazol-3-yl)-ethyl]-amide]	< 5.00	7.80	–	–
